The source of these data is ChEMBL document CHEMBL4396955, “Novel thiazolidines: Synthesis, antiproliferative properties and 2D-QSAR studies” (Bioorg Med Chem, 2019).

Where only a bound is given, the exact number is not on record here.

One assay concerns HCT-116. Description: Antiproliferative activity against human HCT116 cells assessed as reduction in cell growth incubated for 72 hrs by MTT assay. It is filed as functional, cell-based. To be noted: HCT-116, 72 h. In general terms: Tetrazolium assays rely on reduction of a dye to a coloured formazan, in cell work by metabolically active cells.
For a further assay, the system named is TERT-RPE1. Nature of the assay: Cytotoxicity against human RPE1 cells assessed as reduction in cell growth incubated for 72 hrs by MTT assay. In kind it is cell-based. The note with it: RPE-1, 72 h.
Assay [1] deals with MCF7. Description: Antiproliferative activity against human MCF7 cells assessed as reduction in cell growth incubated for 72 hrs by MTT assay. In kind it is functional, cell-based. To be noted: MCF7, 72 h.
Assay [2] concerns MCF7. Nature of the assay: Antiproliferative activity against human MCF7 cells assessed as reduction in cell growth incubated for 48 hrs by MTT assay. To be noted: MCF7, 48 h. In kind it is functional, cell-based.
Assay [3] deals with T1, Peroxisome proliferator-activated receptor gamma (Homo sapiens, UniProt P37231).
T1 sequence (P37231 whole entry): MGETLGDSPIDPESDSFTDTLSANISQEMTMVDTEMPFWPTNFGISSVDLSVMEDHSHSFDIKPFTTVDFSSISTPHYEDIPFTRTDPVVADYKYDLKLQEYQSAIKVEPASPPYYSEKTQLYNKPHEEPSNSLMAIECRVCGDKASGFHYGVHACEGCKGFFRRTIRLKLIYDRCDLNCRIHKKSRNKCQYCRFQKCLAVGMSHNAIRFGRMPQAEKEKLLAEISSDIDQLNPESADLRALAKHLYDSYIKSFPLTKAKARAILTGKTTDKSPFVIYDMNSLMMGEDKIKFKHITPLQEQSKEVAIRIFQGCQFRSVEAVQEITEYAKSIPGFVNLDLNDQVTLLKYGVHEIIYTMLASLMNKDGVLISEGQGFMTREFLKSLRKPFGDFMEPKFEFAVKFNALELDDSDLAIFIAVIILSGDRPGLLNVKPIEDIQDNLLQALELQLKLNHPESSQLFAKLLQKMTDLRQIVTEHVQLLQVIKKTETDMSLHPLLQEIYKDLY
Description: Antagonist activity at human PPARgamma LBD expressed in yeast AH109 cells assessed as reduction in rosiglitazone-stimulated PPARgamma/CBP interaction by measuring alpha galactosidase activity using PNP-alpha-Gal as substrate by alpha-galactosidase based yeast-two hybrid assay. It is filed as cell-based.

In general, IC50 refers to the concentration needed to halve the response being measured.

Regarding `COc1ccc(/C=C2\S/C(=N\c3c(C)cccc3C)N(C)C2=O)cc1`, the half-inhibitory concentration (IC50) with HCT-116, in the assay on TERT-RPE1 and with MCF7 [1] was greater than 100 µM in each case.

`COc1ccc(/C=C2\S/C(=N\c3ccc(C)c(Cl)c3)N(C)C2=O)cc1`: the concentration for half-maximal inhibition (IC50) with HCT-116 is 14.1 µM; with TERT-RPE1 it was 23 µM; in the assay on MCF7 [1], greater than 100 µM.

As to `COc1ccc(/C=C2\S/C(=N\c3ccc(C)cc3)N(C)C2=O)cc1`, the IC50 in the assay with HCT-116, with TERT-RPE1 and in the assay with MCF7 [1] was greater than 100 µM throughout.

As for `COc1ccc(/C=C2/CN(C)/C(=N/c3ccc(Br)cc3)S2)cc1`, the IC50 with HCT-116 amounted to 8.9 µM; in the assay on TERT-RPE1, 61.3 µM; with MCF7 [1] it was 7.4 µM.

For the compound `COc1ccc(/C=C2\S/C(=N\c3ccc(Cl)cc3)N(C)C2=O)cc1`, the IC50 was 10.4 µM with HCT-116, greater than 100 µM in the assay with TERT-RPE1 and 39.3 µM with MCF7 [1].

In the case of `FC(F)(F)c1cc(/N=C2/NC/C(=C/c3ccccc3)S2)cc(C(F)(F)F)c1`, the IC50 is 16.1 µM in the assay on HCT-116, 32.8 µM with TERT-RPE1 and 13.5 µM in the assay with MCF7 [1].

In the case of `S=C(Nc1ccccc1)N1C/C(=C/c2ccccc2)S/C1=N\c1ccccc1`, the IC50 with HCT-116, with TERT-RPE1 and in the assay with MCF7 [1] was greater than 100 µM in each case.

For the compound `COc1ccc(/C=C2\S/C(=N\c3ccc(Br)cc3)N(C)C2=O)cc1`, the IC50 was 17 µM in the assay with HCT-116, greater than 100 µM in the assay with TERT-RPE1 and greater than 100 µM in the assay on MCF7 [1].

For the compound `COc1ccc(/C=C2\S/C(=N\c3ccc(C(C)(C)C)cc3)N(C)C2=O)cc1`, the results for the half-maximal inhibitory concentration (IC50) with HCT-116, with TERT-RPE1 and with MCF7 [1] were greater than 100 µM, 46.7 µM and greater than 100 µM, respectively.

As for `COc1ccc(/C=C2/CN(C)/C(=N/c3ccc([N+](=O)[O-])cc3)S2)cc1`, the IC50 was 10.2 µM with HCT-116, greater than 100 µM in the assay with TERT-RPE1 and 9.8 µM with MCF7 [1].

As to `COc1ccc(/C=C2/CN(C)/C(=N/c3ccc(F)cc3)S2)cc1`, the figures for the IC50 in the assay on HCT-116, with TERT-RPE1 and in the assay on MCF7 [1] were 10 µM, 42.8 µM and 8 µM, respectively.

On to `COc1ccc(/C=C2/CN(C)/C(=N/c3ccc(C(F)(F)F)cc3)S2)cc1`, for which the half-inhibitory concentration (IC50) in the assay on HCT-116 is 34.3 µM; in the assay with TERT-RPE1 it was 72 µM; with MCF7 [1] it was 24.1 µM.

Regarding `C=CC/N=C1/NCC(=C)S1`, the half-maximal inhibitory concentration (IC50) with HCT-116, with TERT-RPE1 and with MCF7 [1] was greater than 100 µM in each case.

Take `COc1ccc(/C=C2/CN(C)/C(=N/c3ccc(C(C)(C)C)cc3)S2)cc1`: the IC50 in the assay with HCT-116 came to 25.9 µM; in the assay with TERT-RPE1, 23.5 µM; with MCF7 [1] it was 28.7 µM.

With `COc1ccc(/C=C2\S/C(=N\c3ccc(F)cc3)N(C)C2=O)cc1`, the IC50 was 13.3 µM with HCT-116, greater than 100 µM with TERT-RPE1 and 66.5 µM in the assay with MCF7 [1].

Regarding `COc1ccc(/C=C2/CN(C)/C(=N/c3ccc(C)cc3)S2)cc1`, the IC50 in the assay on HCT-116 amounted to 11.1 µM; in the assay with TERT-RPE1 it was 65.7 µM; in the assay on MCF7 [1] it was 7.6 µM.

Regarding `COc1ccc(/C=C2\S/C(=N\c3cc(C(F)(F)F)cc(C(F)(F)F)c3)N(C)C2=O)cc1`, the IC50 was greater than 100 µM in the assay on HCT-116, greater than 100 µM with TERT-RPE1 and 77.8 µM with MCF7 [1].

Consider `C=C1CN(C)/C(=N/c2ccccc2)S1`, for which the IC50 in the assay with HCT-116, in the assay on TERT-RPE1 and in the assay with MCF7 [1] was greater than 100 µM each time.

With `COc1ccc(/C=C2/CN(C)/C(=N/c3ccc(OC)cc3)S2)cc1`, the concentration for half-maximal inhibition (IC50) worked out at 15.9 µM in the assay on HCT-116, 65.9 µM in the assay on TERT-RPE1 and 8.7 µM in the assay on MCF7 [1].

Turning to `CCOc1cc(/C=C2\S/C(=N/c3ccc(Cl)c(C(=O)O)c3)N(C)C2=O)cc(Cl)c1O`, the IC50 in the assay on MCF7 [2] was found to be 108 µM; in assay [3], 7.97 µM.

On to `COc1ccc(/C=C2\S/C(=N\c3ccc(OC)cc3)N(C)C2=O)cc1`, for which the concentration for half-maximal inhibition (IC50) in the assay with HCT-116, with TERT-RPE1 and in the assay on MCF7 [1] was greater than 100 µM in each case.

For `C=CC/N=C1\S/C(=C\c2ccc(OC)cc2)C(=O)N1C`, the 50% inhibitory concentration (IC50) was 79.3 µM in the assay on HCT-116, greater than 100 µM with TERT-RPE1 and greater than 100 µM with MCF7 [1].

For `COc1ccc(/C=C2\S/C(=N\c3ccccc3)N(C)C2=O)cc1`, the half-maximal inhibitory concentration (IC50) in the assay with HCT-116, in the assay on TERT-RPE1 and in the assay on MCF7 [1] was greater than 100 µM each time.

Turning to `COc1ccc(/C=C2/CN(C)/C(=N/c3ccc(Cl)cc3)S2)cc1`, the IC50 is 9.8 µM with HCT-116, 39.6 µM with TERT-RPE1 and 7.6 µM with MCF7 [1].

On to `C=C1CN/C(=N/c2ccccc2)S1`, for which the IC50 in the assay with HCT-116, with TERT-RPE1 and with MCF7 [1] was greater than 100 µM in each case.

Take `O=c1[nH]cc(F)c(=O)[nH]1` [FLUOROURACIL]: the half-inhibitory concentration (IC50) stood at 20.4 µM in the assay with HCT-116 and 3.2 µM with MCF7 [1].
